Reference: US20260183408A1, “POLYPEPTIDE AND USE THEREOF” (SHENZHEN CHENYANG BIOLOGICAL TECHNOLOGY CO., LTD, priority 2022, published 2026)

Assays:
CRS mice [1] = experiment: Open field test (OFT, total distance); type: in vivo, mouse; conditions: single intraperitoneal 3 nmol/g, 1 hour after treatment (FIG. 12)
Description: (§1) The C57BL/6J mice were horizontally fixed for 6 h (from 10 to 16 o'clock) in a first acrylic restraint which is cylindrical and flat-bottomed (25×90 mm) every day for 2 weeks. The filter had several slots which could adapt to the size of each mouse to firmly restrain the mouse and inhibit body movements of the limb and trunk without causing pain. Immediately after being restrained, the mice were sent back to their cages. Unrestrained mice (control) stayed in their cages when no CRS procedure was performed. Neither the control mice nor the CRS mice could have access to food and water during the CRS exposure.
(§2) The C57BL/6J mice were subjected to various stress including restraint (for 4 h), cage tilting (for 45 times, with 12 h each time), light-dark cycle reversal (once), flash (for 12 h), and dirty cage (for 2 times, with 14 h each time). The protocol lasted 6 weeks. Control mice were not subjected to corresponding stress.
(§3) The mice were treated with TAT or TAT-D2R-KL (single intraperitoneal administration at 3 nmol/g in both cases). […]
OFT (for testing the total distance): The mice were acclimated to the experimental environment for 1 h and placed in a chamber of 45 cm×45 cm×30 cm. A video was recorded for 5 min to observe the motional activity of the mice. The total distance covered by the mice was measured, analyzed and expressed in millimeters.

D2R/5-HT2CR complex = target: T1, D2R/5-HT2CR complex (Mus musculus, UniProt P34968); experiment: Co-immunoprecipitation of hippocampal tissue of polypeptide-treated SPS mice; type: in vivo; conditions: intraperitoneal, 1.5 h (FIG. 7 left)
T1 construct: from tissue
T1 sequence (P34968 33-459): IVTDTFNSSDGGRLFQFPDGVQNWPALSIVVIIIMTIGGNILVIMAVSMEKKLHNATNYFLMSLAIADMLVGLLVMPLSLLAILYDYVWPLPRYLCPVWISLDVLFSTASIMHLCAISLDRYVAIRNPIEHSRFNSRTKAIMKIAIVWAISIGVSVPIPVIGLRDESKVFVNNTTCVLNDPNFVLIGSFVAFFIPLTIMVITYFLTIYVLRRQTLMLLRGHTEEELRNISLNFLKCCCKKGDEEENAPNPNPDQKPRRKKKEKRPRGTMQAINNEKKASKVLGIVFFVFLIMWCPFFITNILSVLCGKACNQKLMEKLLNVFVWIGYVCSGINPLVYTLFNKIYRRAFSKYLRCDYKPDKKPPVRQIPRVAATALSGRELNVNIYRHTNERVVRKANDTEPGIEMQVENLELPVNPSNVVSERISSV
Description: Co-immunoprecipitation was performed using protein samples (with 100-500 μg protein) from the hippocampal tissue of the Balb/c mice. Mouse monoclonal antibodies against both 5-HT2CR and D2R, D2R, or 5-HT2CR were used for precipitation with 25 μl of the slurry of protein A/G+agarose beads (SantaCruz Biotechnology, sc-2001).
Western blotting analysis after precipitation: Denatured (at 100° C. for 10 min) proteins were separated on an 8% SDS-PAGE gel, then transferred to a nitrocellulose membrane, which was then blocked with skim milk in TBST (Tris-buffered saline with 0.1% Tween 20). Next, incubation was carried out with the primary antibodies at 4° C. overnight. Finally, treatment with an HRP-conjugated secondary antibody were performed for 1 h, signals were detected using the ECL UltraSignal chemiluminescence kit (4A Biotech, cat. no. 4AW011-500), and the bands were analyzed for densities using the Image Lab software.
The SPS model was established with male Balb/c mice. […]
The fear conditioning, safety learning, and recall tests were carried out in two contexts (the fear conditioning and safety learning tests were carried out in context A; and the recall test was carried out in context B). […] After the experiment was completed, the freezing level was manually calculated based on the recorded video. […]

SPS mice [2] = experiment: Corticosterone, cortisol, DA and 5-HT levels in hippocampus and cortex; type: in vivo, mouse
SPS mice [3] = experiment: Fear conditioning, safety learning and recall tests (freezing level); type: in vivo; conditions: treated for 1.5 h, 3 nM intraperitoneally, 100 μl/10 g mouse (FIG. 7 right)
Description: The SPS model was established with male Balb/c mice. The modified SPS protocol was used to comprise a series of stress exposure: 2 hours of restraint stress (inside a 50-mL plastic tube having several air holes), 3 min of rest, 12 min of forced swimming in a transparent glass tank (at about 24° C.), 15 min of rest (drying under a warming lamp), 20 min of predator (rat) odor exposure, followed by ether anesthesia (until the mice completely lost consciousness). Thereafter, the mice are transferred back to their cages with fresh bedding. The control mice were housed in groups and received no stress exposure. After the model establishment, all mice were raised undisturbed for one week.
The fear conditioning, safety learning, and recall tests were carried out in two contexts (the fear conditioning and safety learning tests were carried out in context A; and the recall test was carried out in context B). The shapes and smells provided in contexts A and B were different. Indoor floors were cleaned with 1% acetic acid or 75% ethanol prior to testing. […] After the experiment was completed, the freezing level was manually calculated based on the recorded video. The criterion for a freezing behavior is that if no movement other than normal breathing of a mouse was detected within 2 seconds, then the mouse was considered freezing. […]

CRS mice [4] = experiment: Forced swimming test (FST); type: in vivo, mouse; conditions: single intraperitoneal 3 nmol/g, 1 hour after treatment, compared with TAT-treated mice (FIG. 12)
Description: as §1, §2, §3
FST: The mice were placed in a cylinder (having a height of 70 cm and a diameter of 30 cm) made of organic glass and filled with water (with water temperature at 23±1° C.), wherein the water level was more than 30 cm from the bottom. The mice were recorded in video for 5 min, then the video was analyzed, and the immobility time was recorded. […]

TAT-D2R-KL: C-terminus of the KL (K226-L240) region of D2R fused to the transduction domain of HIV-1 Tat protein (SEQ ID NO: 5)
overall movement ability (total distance) (CRS mice [1]): had no effect | interaction between 5-HT2CR and D2R (D2R/5-HT2CR complex): decrease | level of cortisol (SPS mice [2]; hippocampus and cortex of SPS mice (FIG. 9)): did not significantly change | level of DA (SPS mice [2]; hippocampus and cortex of SPS mice (FIG. 10)): did not significantly change | elevated corticosterone level (SPS mice [2]; hippocampus of SPS mice (FIG. 8)): significantly reduced | upregulated 5-HT (SPS mice [2]; hippocampus of SPS mice (FIG. 11)): did not reduce | freezing level (SPS mice [3]): reduced | immobility time (FST) (CRS mice [4]): significantly reduced
